Laboratory results taken from ChEMBL document CHEMBL1147964, “Double mode of inhibition-inducing interactions of 1,4-naphthoquinone with urease: arylation versus oxidation of enzyme thiols” (Bioorg Med Chem, 2007).

How the values were obtained:
[1] = target: Urease (Canavalia ensiformis) (UniProt P07374); experiment: Inhibition of jack bean urease assessed as residual activity at 85 uM
[2] = target: Urease (Canavalia ensiformis) (UniProt P07374); experiment: Inhibition of jack bean urease assessed as residual activity at 30 uM
[3] = target: Urease (Canavalia ensiformis) (UniProt P07374); experiment: Reactivation of jack bean urease activity in presence of DTT after 40 mins
[4] = target: Urease (Canavalia ensiformis) (UniProt P07374); experiment: Inhibition of jack bean urease assessed as residual activity at 50 uM

Sequence of Urease (Canavalia ensiformis) (P07374 whole entry, looked up): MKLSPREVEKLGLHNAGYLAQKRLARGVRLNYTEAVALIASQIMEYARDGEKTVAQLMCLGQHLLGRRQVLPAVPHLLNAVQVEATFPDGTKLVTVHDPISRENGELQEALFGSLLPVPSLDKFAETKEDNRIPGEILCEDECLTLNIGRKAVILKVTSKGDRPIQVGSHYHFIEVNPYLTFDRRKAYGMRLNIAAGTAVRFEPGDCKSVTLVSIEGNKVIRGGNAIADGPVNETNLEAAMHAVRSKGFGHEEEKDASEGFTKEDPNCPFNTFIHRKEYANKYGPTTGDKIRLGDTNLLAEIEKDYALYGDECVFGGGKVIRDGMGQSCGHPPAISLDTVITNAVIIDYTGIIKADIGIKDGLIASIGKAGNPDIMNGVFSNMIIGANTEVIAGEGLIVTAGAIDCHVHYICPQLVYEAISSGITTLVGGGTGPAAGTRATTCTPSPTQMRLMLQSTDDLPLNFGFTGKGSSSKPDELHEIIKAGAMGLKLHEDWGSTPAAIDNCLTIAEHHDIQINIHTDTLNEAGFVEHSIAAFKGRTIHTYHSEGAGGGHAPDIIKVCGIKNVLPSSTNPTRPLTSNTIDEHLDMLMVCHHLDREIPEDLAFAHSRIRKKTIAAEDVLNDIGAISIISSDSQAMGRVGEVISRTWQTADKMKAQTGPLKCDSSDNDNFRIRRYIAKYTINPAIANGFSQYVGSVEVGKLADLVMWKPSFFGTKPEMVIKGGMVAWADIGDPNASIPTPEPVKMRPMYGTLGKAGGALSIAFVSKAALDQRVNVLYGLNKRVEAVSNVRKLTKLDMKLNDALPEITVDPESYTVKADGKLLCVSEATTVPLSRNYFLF

Question: How did the Activity [1] turn out when O=C1C=CC(=O)c2ccccc21 was run?
Answer: 7%

Question: And the Activity [2]?
Answer: 40%

Question: And the Activity [3]?
Answer: 40%

Question: And the Activity [4]?
Answer: 24%
